Reference: PMC7127091 (Bioorganic & Medicinal Chemistry, 2010)

tested on: human cytomegalovirus (HCMV) strain Davis; test: Anti-HCMV assay in HEL fibroblasts; format: cell-based; conditions: HCMV replication in cell culture

Q: For `C[C@H](NC(=O)[C@@]1(Cc2ccccc2)CCN1C(=O)OCc1ccccc1)C(=O)NC(C)(C)C` [(R,S)-4a, (2R,1’S)-2-Benzyl-1-benzyloxycarbonyl-2-[(1’-tert-butylcarbamoyl)ethyl]carbamoyl-azetidine], which “anti-HCMV activity (in words)” value is on record?
A: retain the anti-HCMV activity

Q: `CC(C)C[C@H](NC(=O)[C@@]1(Cc2ccccc2)CCN1C(=O)OCc1ccccc1)C(N)=O` [(R,S)-7d, (2R,1’S)-2-Benzyl-1-benzyloxycarbonyl-2-[(1’-carbamoyl-3’-methyl)butyl]carbamoyl-azetidine] was tested. Which “anti-HCMV activity (in words)” value did it give?
A: maintain measurable anti-HCMV activity

Q: Which “anti-HCMV activity (in words)” value does the source give for `C[C@@H](NC(=O)[C@]1(Cc2ccccc2)CCN1C(=O)OCc1ccccc1)C(N)=O` [(S,R)-7a, (2S,1’R)-2-Benzyl-1-benzyloxycarbonyl-2-[(1’-carbamoyl)ethyl]carbamoylazetidine] here?
A: maintain measurable anti-HCMV activity

Q: With `C[C@H](NC(=O)[C@]1(Cc2ccccc2)CCN1C(=O)OCc1ccccc1)C(=O)NC(C)(C)C` [(S,S)-4a, (2S,1’S)-2-Benzyl-1-benzyloxycarbonyl-2-[(1’-tert-butylcarbamoyl)ethyl]carbamoyl-azetidine] as the compound, how does the “anti-HCMV activity (in words)” value read?
A: retain the anti-HCMV activity

Q: With `CC(C)CNC(=O)[C@H](C)NC(=O)[C@]1(Cc2ccccc2)CCN1C(=O)OCc1ccccc1` [(S,S)-4c, (2S,1’S)-2-Benzyl-1-benzyloxycarbonyl-2-[(1’-isobutylcarbamoyl)ethyl]carbamoyl-azetidine] as the compound, how does the “anti-HCMV activity (in words)” value read?
A: retain the anti-HCMV activity

Q: `CC(C)[C@H](NC(=O)[C@]1(Cc2ccccc2)CCN1C(=O)OCc1ccccc1)C(N)=O` [(S,S)-7c, (2S,1’S)-2-Benzyl-1-benzyloxycarbonyl-2-[(1’-carbamoyl-2’-methyl)propyl]carbamoyl-azetidine] was tested. Which “anti-HCMV activity (in words)” value did it give?
A: maintain measurable anti-HCMV activity

Q: For `C[C@H](NC(=O)[C@]1(Cc2ccccc2)CCN1C(=O)OCC1c2ccccc2-c2ccccc21)C(N)=O` [(S,S)-10a, (2S,1’S)-2-Benzyl-2-[(1’-carbamoyl)ethyl]carbamoyl-1-(9-fluorenylmethoxy)carbonyl-azetidine], which “anti-HCMV activity (in words)” value is on record?
A: inactive against HCMV

Q: For `C[C@H](NC(=O)[C@]1(Cc2ccccc2)CCN1C(=O)NCc1ccccc1)C(N)=O` [(S,S)-10h, (2S,1’S)-2-Benzyl-1-benzylcarbamoyl-2-[(1’-carbamoyl)ethyl]carbamoylazetidine], which “anti-HCMV activity (in words)” value is on record?
A: inactive

Q: Which “anti-HCMV activity (in words)” value does the source give for `C[C@H](NC(=O)[C@]1(Cc2ccccc2)CCN1C(=O)N[C@@H](C)c1ccccc1)C(N)=O` [(S,S)-10i, (2S,1’S,1’’S)-2-Benzyl-2-[(1’’-carbamoyl)ethyl]carbamoyl-1-[(1’-phenyl)ethyl]carbamoyl-azetidine] here?
A: inactive

Q: With `C[C@H](NC(=O)[C@H](Cc1ccccc1)NC(=O)OCc1ccccc1)C(N)=O` [compound 11, Z-Phe-Ala-NH2] as the compound, how does the “anti-HCMV activity (in words)” value read?
A: unable to inhibit the replication of HCMV

Q: How did the “anti-HCMV activity (in words)” value turn out when `C[C@H](NC(=O)[C@H](Cc1ccccc1)NC(=O)OCc1ccccc1)C(=O)NC(C)(C)C` [compound 12, Z-Phe-Ala-NH^tBu] was run?
A: unable to inhibit the replication of HCMV

Q: How did the “anti-HCMV activity (in words)” value turn out when “(2S,1’S)-2-Benzyl-2-[(1’-carbamoyl)ethyl]carbamoyl-1-phenetylcarbonylazetidine [(S,S)-10g]” was run?
A: inactive

same assay, conditions: read-out: EC50 HCMV; Davis strain, 100 PFU, HEL fibroblasts, 7 days

Q: “(2S,1’S)-2-Benzyl-2-[(1’-carbamoyl)ethyl]carbamoyl-1-(4-nitrobenzyloxy)carbonyl-azetidine [(S,S)-10c]” was tested. Which EC50 did it give?
A: > 20 µM

Q: For “(2S,1’S)-2-Benzyl-2-[(1’-carbamoyl)ethyl]carbamoyl-1-phenetylcarbonylazetidine [(S,S)-10g]”, which EC50 is on record?
A: > 100 µM
